PubChem BioAssay AID2060896 (Molecular Pharmacology Branch, DTP, NCI, 2025)
Values joined by “and” are separate entries in the source; they are usually repeats but may differ in a detail not shown here. Equal entries are not always repeated. Values belong to the compound of their own block, whether it stands above or below them.

Tested on: 941728-121-R-J1-PDC complex spheroid viability
Experiment: Anticancer human tumor 941728-121-R-J1-PDC patient-derived lung adenocarcinoma cell line growth inhibition [RAS]
Conditions: for viability, T/C: stronger effect = lower value
Text: RAS pathway inhibitors in Combinations in Complex Spheroids
A high-throughput screen of multi-cell type tumor spheroids was designed to identify active combinations of RAS pathway inhibitors and targeted small molecules. Complex spheroids include a stromal component modeled by human endothelial cells (HUVEC) and fibroblasts modeled by human mesenchymal stem cells (MSCs). The concentration ranges selected for each drug and investigational agent were based upon clinically achievable concentrations if the clinical Cmax of the agent was known.
Compounds. The drugs and investigational agents: abemaciclib (NSC768073), cobimetinib (NSC768068), divarasib (GDC6063, NSC841802), docetaxel (NSC628503), GDC-1971 (RLY-1971, NSC841576), gemcitabine (NSC613327), inavolisib (NSC800729), ipatasertib (NSC767898), KB-0742 (NSC834161), MRTX-1133 (NSC836407), osimertinib (NSC779217), RMC-4630 (NSC839698), RMC-6236 (NSC851965), RMC-6291 (NSC852671), Ro-3306 (NSC812927), sapanisertib (NSC764658), SN-38 (NSC673596), staurosporine (NSC755774), SY5609 (NSC837396), and tovorafenib (DAY101, NSC766906), were obtained from the National Cancer Institute (NCI) Developmental Therapeutics Program Chemical Repository. The FDA-approved anticancer drug set is available from the NCI Developmental Therapeutics Program. […] The stock solutions were prepared in dimethyl sulfoxide (DMSO, Sigma-Aldrich, St. Louis, MO, cat. D2650) at 800-fold the tested concentration and stored at -70 degrees C prior to their use. All drugs and investigational agents were tested over a range starting from a high concentration at or near the clinical Cmax and decreasing in half-log increments. If the clinical Cmax for an agent had not been determined, the highest concentration tested was 10 microM.
Cell Culture. All cells were maintained in an incubator at 37 degrees C and 5% CO2 with 95% humidity. The PDC lines were cultured according to standard operating procedures established by the NCI PDMR. All PDCs were thawed and cultured in Matrigel-coated flasks prepared with a working solution of 1X Ham's F-12 nutrient mix, without supplementation (Invitrogen, Waltham, MA, cat. 11765054), 100 U/mL penicillin-streptomycin (Invitrogen, cat. 15140122), and 2.5% Matrigel (Corning Inc., Corning, NY, cat. 354248) for the first three passages. The 362531-283-R-J2-PDC and 782815-120-R-J1-PDC lines were cultured in 6C/Colon 1B media, which includes advanced DMEM/F-12 (Thermo Fisher Scientific, cat. 12634028), 10 mM HEPES (Thermo Fisher Scientific, cat. 15630080), 1X GlutaMAX supplement (Thermo Fisher Scientific, cat. 35050061), 0.1 mg/mL primocin (InvivoGen, San Diego, CA, cat. ant-pm-2), 10% defined fetal bovine serum, heat inactivated (HyClone Laboratories Inc., Logan, UT, cat. SH30070.03HI), 50% L-WRN conditioned media (ATCC, cat. CRL-3276), 1.25 mM N-Acetyl-L-cysteine (Sigma-Aldrich, cat. A9165), 10 mM nicotinamide (Sigma-Aldrich, cat. N0636), 1X B-27 supplement (Thermo Fisher Scientific, cat. 17504044), 1X N-2 supplement (Thermo Fisher Scientific, cat. 17502048), 50 ng/mL human EGF (Thermo Fisher Scientific, cat. PHG0311), and 10 microM Y-27632 dihydrochloride (Tocris Bioscience, cat. 1254). The K12877-001-R-J1-PDC line was cultured in 6I media, which includes all 6C/Colon 1B media plus 10 ng/mL human FGF-10 (PeproTech, cat. 100-26), 1 ng/mL human FGF-2 (PeproTech, cat. 100-18B), 1 µM prostaglandin E2 (Tocris Bioscience, cat. 2296), […] hydrocortisone (Sigma-Aldrich, cat. H4001), and […] bovine insulin (Sigma-Aldrich, cat. I6634). The K86415-001-R-J1-PDC line was cultured in 6D media, which includes all 6C/Colon 1B media components minus the L-WRN conditioned media. The 485176-168-R4-J1-PDC was cultured in PANC media, which includes all 6C/Colon 1B media plus 100 ng/mL human FGF-10 (PeproTech, cat. 100-26), 500 nM SB-431542 (Selleckchem, cat. S1067), and 10 nM gastrin (Tocris Bioscience, cat. 3006). […]

[1] = curve of first compound, second compound 0.0316 µM
[2] = curve of first compound, second compound 0.1 µM
[3] = curve of first compound, second compound 0.316 µM
[4] = curve of first compound, second compound 1 µM
[5] = curve of first compound, second compound 3.16 µM
[6] = curve of first compound, second compound 10 µM
[7] = second compound 0.0316 µM, first compound 0.00316 µM
[8] = second compound 0.0316 µM, first compound 0.01 µM
[9] = second compound 0.0316 µM, first compound 0.0316 µM
[10] = second compound 0.0316 µM, first compound 0.1 µM
[11] = second compound 0.0316 µM, first compound 0.316 µM
[12] = second compound 0.0316 µM, first compound 1 µM
[13] = second compound 0.1 µM, first compound 0.00316 µM
[14] = second compound 0.1 µM, first compound 0.01 µM
[15] = second compound 0.1 µM, first compound 0.0316 µM
[16] = second compound 0.1 µM, first compound 0.1 µM
[17] = second compound 0.1 µM, first compound 0.316 µM
[18] = second compound 0.1 µM, first compound 1 µM
[19] = second compound 0.316 µM, first compound 0.00316 µM
[20] = second compound 0.316 µM, first compound 0.01 µM
[21] = second compound 0.316 µM, first compound 0.0316 µM
[22] = second compound 0.316 µM, first compound 0.1 µM
[23] = second compound 0.316 µM, first compound 0.316 µM
[24] = second compound 0.316 µM, first compound 1 µM
[25] = second compound 1 µM, first compound 0.00316 µM
[26] = second compound 1 µM, first compound 0.01 µM
[27] = second compound 1 µM, first compound 0.0316 µM
[28] = second compound 1 µM, first compound 0.1 µM
[29] = second compound 1 µM, first compound 0.316 µM
[30] = second compound 1 µM, first compound 1 µM
[31] = second compound 3.16 µM, first compound 0.00316 µM
[32] = second compound 3.16 µM, first compound 0.01 µM
[33] = second compound 3.16 µM, first compound 0.0316 µM
[34] = second compound 3.16 µM, first compound 0.1 µM
[35] = second compound 3.16 µM, first compound 0.316 µM
[36] = second compound 3.16 µM, first compound 1 µM
[37] = second compound 10 µM, first compound 0.00316 µM
[38] = second compound 10 µM, first compound 0.01 µM
[39] = second compound 10 µM, first compound 0.0316 µM
[40] = second compound 10 µM, first compound 0.1 µM
[41] = second compound 10 µM, first compound 0.316 µM
[42] = second compound 10 µM, first compound 1 µM
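Note: spheroids exposed to compounds for 7 days before readout.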
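Throughout, for viability, T/C: 100% = DMSO vehicle control viability.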

Compound: CC(=O)OC12COC1CC(O)C1(C)C(=O)C(O)C3=C(C)C(OC(=O)C(O)C(NC(=O)OC(C)(C)C)c4ccccc4)CC(O)(C(OC(=O)c4ccccc4)C21)C3(C)C (centres undefined)
- viability, T/C (compound 0.0316 µM): 51.2% [middle of 4 runs]
- viability, T/C (compound 0.1 µM): 54.9% [middle of 4 runs]
- viability, T/C (compound 0.316 µM): 48.2% [middle of 4 runs]
- viability, T/C (compound 1 µM): 49% [middle of 4 runs]
- viability, T/C (compound 3.16 µM): 47.4% [middle of 4 runs]
- viability, T/C (compound 10 µM): 56.4% [middle of 4 runs]

Compound: Nc1ccn(C2OC(CO)C(O)C2(F)F)c(=O)n1 (centres undefined)
- viability, T/C (compound 0.0316 µM): 56.4% [middle of 4 runs]
- viability, T/C (compound 0.1 µM): 57.3% [middle of 4 runs]
- viability, T/C (compound 0.316 µM): 52.7% [middle of 4 runs]
- viability, T/C (compound 1 µM): 43% [middle of 4 runs]

Continued, in another order:

- IC50 (curve of compound): 2030 nM and 2530 nM and 2050 nM
Compound: CCC(CC)c1cc(NC2CCC(N)C2)n2nccc2n1 (centres undefined)
- viability, T/C (compound 0.1 µM): 105% [middle of 4 runs]
- viability, T/C (compound 0.316 µM): 95.6% [middle of 4 runs]
- viability, T/C (compound 3.16 µM): 30.5% [middle of 4 runs]
- viability, T/C (compound 10 µM): 44% [middle of 4 runs]

- IC50 [1]: 142 nM
- IC50 [2]: 54.7 nM
- IC50 [3]: 16.8 nM
- IC50 [4]: < 3.16 nM
- IC50 [5]: < 3.16 nM
- IC50 [6]: < 3.16 nM
Compound: C=CC(=O)Nc1cc(Nc2nccc(-c3cn(C)c4ccccc34)n2)c(OC)cc1N(C)CCN(C)C + C#Cc1c(F)ccc2cc(O)cc(-c3ncc4c(N5CC6CCC(C5)N6)nc(OCC56CCCN5CC(F)C6)nc4c3F)c12
- viability, T/C [7]: 79.4%
- viability, T/C [8]: 70.4%
- viability, T/C [9]: 61.4%
- viability, T/C [10]: 51%
- viability, T/C [11]: 44.9%
- viability, T/C [12]: 39.5%
- viability, T/C [13]: 78.5%
- viability, T/C [14]: 65.6%
- viability, T/C [15]: 58%
- viability, T/C [16]: 40.9%
- viability, T/C [17]: 42.1%
- viability, T/C [18]: 36.4%
- viability, T/C [19]: 56.1%
- viability, T/C [20]: 57.7%
- viability, T/C [21]: 41.7%
- viability, T/C [22]: 36.6%
- viability, T/C [23]: 32.8%
- viability, T/C [24]: 33.8%
- viability, T/C [25]: 35.2%
- viability, T/C [26]: 39.1%
- viability, T/C [27]: 31.6%
- viability, T/C [28]: 29.2%
- viability, T/C [29]: 29.5%
- viability, T/C [30]: 30%
- viability, T/C [31]: 30.3%
- viability, T/C [32]: 26.5%
- viability, T/C [33]: 26.5%
- viability, T/C [34]: 26.1%
- viability, T/C [35]: 26%
- viability, T/C [36]: 24.6%
- viability, T/C [37]: 22.1%
- viability, T/C [38]: 22.3%
- viability, T/C [39]: 19.7%
- viability, T/C [40]: 19.3%
- viability, T/C [41]: 20%
- viability, T/C [42]: 17.5%

- IC50 [1]: 14.5 nM
- IC50 [2]: 9.8 nM
- IC50 [3]: < 3.16 nM
- IC50 [4]: < 3.16 nM
- IC50 [5]: < 3.16 nM
- IC50 [6]: < 3.16 nM
Compound: O=C(c1ccc(F)c(F)c1Nc1ccc(I)cc1F)N1CC(O)([C@@H]2CCCCN2)C1 + C#Cc1c(F)ccc2cc(O)cc(-c3ncc4c(N5CC6CCC(C5)N6)nc(OCC56CCCN5CC(F)C6)nc4c3F)c12
- viability, T/C [7]: 71%
- viability, T/C [8]: 55.9%
- viability, T/C [9]: 37.7%
- viability, T/C [10]: 31.2%
- viability, T/C [11]: 29.6%
- viability, T/C [12]: 24.4%
- viability, T/C [13]: 70.6%
- viability, T/C [14]: 49.2%
- viability, T/C [15]: 37%
- viability, T/C [16]: 31%
- viability, T/C [17]: 28.3%
- viability, T/C [18]: 23.9%
- viability, T/C [19]: 47.9%
- viability, T/C [20]: 44.9%
- viability, T/C [21]: 31.9%
- viability, T/C [22]: 29%
- viability, T/C [23]: 30.5%
- viability, T/C [24]: 21.6%
- viability, T/C [25]: 33.8%
- viability, T/C [26]: 29.7%
- viability, T/C [27]: 31.9%
- viability, T/C [28]: 29.1%
- viability, T/C [29]: 29.2%
- viability, T/C [30]: 20.8%
- viability, T/C [31]: 24.5%
- viability, T/C [32]: 28.5%
- viability, T/C [33]: 27.4%
- viability, T/C [34]: 25.7%
- viability, T/C [35]: 21.9%
- viability, T/C [36]: 19.1%
- viability, T/C [37]: 22%
- viability, T/C [38]: 18.8%
- viability, T/C [39]: 17.7%
- viability, T/C [40]: 18.1%
- viability, T/C [41]: 15.5%
- viability, T/C [42]: 12.2%
